From ChEMBL document CHEMBL4725238, “Methylene blue-based 7-nitro-1,2,3-benzoxadiazole NIR fluorescent probe triggered by HS” (Bioorg Med Chem Lett, 2020)
Active and inactive are the calls of the source.

Key:
[1] = Sulfate reactivity in pH 7 C2H5OH/PBS assessed as change in fluorescence at 50 uM
[2] = Sodium reactivity in pH 7 C2H5OH/PBS assessed as change in fluorescence at 50 uM
[3] = Acetate reactivity in pH 7 C2H5OH/PBS assessed as change in fluorescence at 50 uM
[4] = Zinc reactivity in pH 7 C2H5OH/PBS assessed as change in fluorescence at 50 uM
[5] = Iodide reactivity in pH 7 C2H5OH/PBS assessed as change in fluorescence at 50 uM
[6] = Nitrate reactivity in pH 7 C2H5OH/PBS assessed as change in fluorescence at 50 uM
[7] = […] reactivity in pH 7 C2H5OH/PBS assessed as change in fluorescence at 50 uM
[8] = Chloride reactivity in pH 7 C2H5OH/PBS assessed as change in fluorescence at 50 uM
[9] = Bicarbonate reactivity in pH 7 C2H5OH/PBS assessed as change in fluorescence at 50 uM
[10] = Cytotoxicity against human HCT-116 cells assessed as cell viability up to 50 uM incubated for 24 hrs by CCK8 assay relative to control; assay type: cell-based; details: read-out: Activity
[11] = Cytotoxicity against human HCT-116 cells assessed as cell viability at 10 uM incubated for 24 hrs by CCK8 assay relative to control; assay type: cell-based; details: read-out: Activity
[12] = Potassium reactivity in pH 7 C2H5OH/PBS assessed as change in fluorescence at 50 uM
[13] = Glutathione reactivity in pH 7 C2H5OH/PBS assessed as change in fluorescence at 50 uM
[14] = Thiocyanate reactivity in pH 7 C2H5OH/PBS assessed as change in fluorescence at 50 uM
[15] = Hydrogen sulphide reactivity in pH 7 C2H5OH/PBS assessed as change in fluorescence at 50 uM
[16] = Drug accumulation in human HCT116 cells up to 100 uM in presence of Na2S; assay type: ADME, cell-based; details: hct-116
[17] = Bromide reactivity in pH 7 C2H5OH/PBS assessed as change in fluorescence at 50 uM
[18] = Cysteine reactivity in pH 7 C2H5OH/PBS assessed as change in fluorescence at 50 uM
[19] = Phosphoric acid reactivity in pH 7 C2H5OH/PBS assessed as change in fluorescence at 50 uM

CN(C)c1ccc2c(c1)Sc1cc(N(C)C)ccc1N2c1ccc([N+](=O)[O-])c2nonc12
active: Activity [13] | Activity [15] | Activity [18]
Active: Drug uptake [16]
> 85%: viability at 24 h, 10 µM [11]
64%: viability at 24 h [10]
inactive: Activity [1] | Activity [2] | Activity [3] | Activity [4] | Activity [5] | Activity [6] | Activity [7] | Activity [8] | Activity [9] | Activity [12] | Activity [14] | Activity [17] | Activity [19]
